Assay results reported in patent US9980951B2, “Image guided therapy for cancer” (UNIVERSITY OF IOWA RESEARCH FOUNDATION, priority 2015, dated 2018).
Values joined by “and” are separate entries in the source; they are usually repeats but may differ in a detail not shown here. Equal entries are not always repeated.

Columns and labels:
A375 melanoma cells [1] = experiment: Confocal microscopy, mitochondrial accumulation and colocalization with Mito Tracker Red; type: cell-based, human; details: A375, 1 μM, 3 h
Protocol: (§1) Confocal microscopy was used to determine that 10-TPVP preferentially accumulates in the mitochondria of melanoma cells and fluoresces upon aggregation in mitochondrial membranes of melanoma cells relative to nonmalignant cells (FIG. 1). […] NHF cells have a basal level of 10-TPVP accumulation, supporting the hypothesis that TPVP derivatives preferentially accumulate by targeting the hyperpolarized mitochondrial membrane (FIG. 1; Column II).
(§2) Experiments were performed using human metastatic BRAFV600E mutant A375 (ATCC CRL-1619) human melanoma cells, metastatic BRAFV600E mutant SK-Mel-3 (ATCC HTB-69) human melanoma cells isolated from a lymph node metastasis, and nonmetastatic normal human fibroblasts (NHFs) provided by the Coriell Institute (AG13442). All cells were cultured at 21% O2 at 37° C. in a humidified 5% CO2 incubator. Cells were detached with 0.25% trypsin-EDTA. A375 and NHF cells were cultured in high-glucose DMEM medium supplemented with 1% PenStrep and 10% FBS. SK-Mel-3 cells were cultured in high-glucose McCoy's 5A medium supplemented with 1% PenStrep and 15% FBS. All medium components were purchased from Gibco.
(§3) A375, SK-Mel-3, and NHF cells were cultured at a density of 2.5×104, 5×104, or 7.5×104, respectively, on a 4 well glass chamber slide for 24 h prior to exposure to test compounds. […]

SK-Mel-3 melanoma cells [2] = experiment: as above; type: cell-based, human; details: SK-Mel-3, 1 μM, 3 h
Protocol: as §1, §2, §3

[3] = system: normal human fibroblasts (NHFs); experiment: as above; type: cell-based; details: 1 μM, 3 h
Protocol: as §1, §2, §3

A375 melanoma cells [4] = experiment: DHE oxidation; type: cell-based, human; details: A375, 10 μM, 1 h, normalized to untreated control
Description: (§4) Oxidation-sensitive dihydroethidium (DHE) was used to determine if mitochondrial-accumulated TPVP derivatives alter the oxidation state of melanoma cells (FIG. 3). DHE is a blue-fluorescent superoxide-sensitive probe that accumulates in the cytosol of healthy cells. However, upon reaction with superoxide, DHE intercalates with DNA and forms a red-fluorescent product (2-hydroxyethidium). Therefore, the shift to red fluorescence is an indicator of the change in the redox state of the cell.
as §2
(§5) A375 cells were plated in a black, clearbottom 96 well plate at a density of 1.5×10^4 cells per well. […] Cells were analyzed using a spectrophotometer at 590 nm.

SK-Mel-3 melanoma cells [5] = experiment: DHE oxidation; type: cell-based, human; details: SK-Mel-3, 10 μM, 1 h, normalized to untreated control
Description: as §4, §2, §5

[6] = system: normal human fibroblasts (NHFs); experiment: DHE oxidation; type: cell-based; details: 10 μM, 1 h
Description: as §4, §2, §5

A375 melanoma cells [7] = experiment: Intracellular ATP measurement (CellTiter-Glo luciferase assay); type: cell-based, human; details: 24 h; for concentration of ATP relative to the untreated control: A375, 2.5, 5.0, or 10 μM
Protocol: (§6) TPVP derivatives embed in the mitochondria of malignant cells and increase the oxidation state relative to NHFs. Therefore, intracellular ATP levels were measured to determine the potential impact of TPVP-based treatment on cell viability (FIG. 4). This platereader-based luciferase assay is a selective method for determining the number of viable cells by quantifying the ATP-dependent oxygenation of luciferin. […] Specifically, A375 ATP levels were depleted from 1.5 mM to less than 0.8 mM after exposure to all three compounds at 10 μM.
as §2
(§7) A375 cells were plated in 60 mm culture dishes at a density of 1.5×10^5 cells per dish. SK-Mel-3 and NHF cells were plated in 60 mm culture dishes at a density of 2.5×10^5 cells per dish. After 48 h, cells were exposed to 2.5, 5.0 or 10 μM of PTVP, DPDVP, or 18:2-TPVP for 24 h and analyzed for intracellular ATP content using the CellTiter-Glo Luminescent Cell Viability Assay (Promega).

A375 melanoma cells [8] = experiment: Clonogenic survival assay; type: cell-based, human; details: 24 h; for clonogenic survival relative to the untreated control: A375, 5.0, 7.5, and 10 μM
Protocol: (§8) To further test the hypothesis that TPVP derivatives can be designed to decrease viability in melanoma cells relative to normal cells, clonogenic survival assays were performed (FIG. 6). The clonogenic cell survival assay is used often as a measure of the ability of cells to proliferate indefinitely. In these studies, cells were exposed to varying concentrations of TPVP derivatives for 24 h. After exposure to cytotoxic compounds, cells were collected, counted, and reseeded at a low density. The cells then undergo a series of doublings, forming cell colonies. These colonies were then counted, and the resulting cell survival curve reports the dose of the agent used to produce an insult and the fraction of cells retaining their ability to reproduce. […] Specifically, 18:2-TPVP decreases clonogenic survival to <50% at 5.0 μM for both A375 and SK-Mel-3 cells and <20% at 7.5 μM.
as §2
(§9) A375 cells were plated in 60 mm culture dishes at a density of 1.5×10^5 cells per dish. SKMel-3 and NHF cells were plated in 60 mm culture dishes at a density of 2.5×10^5 cells per dish. After 48 h, cells were treated with 1.0, 2.5, 5.0, 7.5, or 10 μM of PTVP, DPDVP, or 18:2-TPVP for 24 h. After the exposure period, cells were collected, counted, and plated at either 500 (A375 and NHF) or 3000 (SK-Mel-3) cells per 60 mm dish. Following a 2 week incubation, medium was removed and colonies fixed with ethanol and stained with Coommassie Brilliant Blue. Data were normalized to each untreated control, and the surviving fraction was reported.

SK-Mel-3 melanoma cells [9] = experiment: Clonogenic survival assay; type: cell-based, human; details: 24 h; for clonogenic survival relative to the untreated control: SK-Mel-3, 5.0, 7.5, and 10 μM
Protocol: as §8, §2, §9

A375 melanoma cells [10] = experiment: JC-1 mitochondrial membrane potential assay; type: cell-based, human; details: A375, 10 μM, 1 h
Description: (§10) JC-1 mitochondrial membrane potential assays were used to determine that TPVP derivatives are designed to accumulate in melanoma cell mitochondria and disrupt the membrane potential of melanoma cells relative to nonmalignant cells (FIG. 2).
(§11) Mitochondrial membrane potential is an important parameter of mitochondrial function. In healthy cells (with high mitochondrial potential), JC-1 spontaneously forms complexes known as J-aggregates that fluoresce in the red region. In unhealthy cells with a low mitochondria membrane potential or cells whose membrane integrity is disrupted with uncoupling agents (e.g., FCCP), JC-1 remains in the monomeric form, with fluorescence in the green region. Therefore, the ratio of Jaggregate to monomer fluorescence is an indicator of mitochondrial membrane potential and cellular health.
as §2
(§12) A375 cells were plated in a black, clear-bottom 96 well plate at a density of 1.5×10^4 cells per well. SK-Mel-3 and NHF cells were plated in a black, clear-bottom 96 well plate at a density of 2.5×10^4 cells […]. After 24 h, cells were treated with 2.5, 5.0, or 10 μM 18:2-TPVP or DPDVP for 1 h. Cells were then washed and incubated with 2.0 μM JC-1 (Cayman) in PBS containing 5 mM pyruvate (Gibco) for 1 h. Control dishes were treated with 1.0 μM FCCP (Sigma-Alrich) 30 min prior to measurement. Cells were washed and analyzed in PBS using a spectrophotometer at 530 and 590 nm.

SK-Mel-3 melanoma cells [11] = experiment: JC-1 mitochondrial membrane potential assay; type: cell-based, human; details: SK-Mel-3, 10 μM, 1 h
Description: as §10, §11, §2, §12

[12] = system: normal human fibroblasts (NHFs); experiment: JC-1 mitochondrial membrane potential assay; type: cell-based; details: 10 μM, 1 h
Description: as §10, §11
Experiments were performed using human metastatic BRAFV600E mutant A375 (ATCC CRL-1619) human melanoma cells, metastatic BRAFV600E mutant SK-Mel-3 (ATCC HTB-69) human melanoma cells isolated from a lymph node metastasis, and nonmetastatic normal human fibroblasts (NHFs) provided by the Coriell Institute (AG13442). All cells were cultured at 21% O2 at 37° C. in a humidified 5% CO2 incubator. […]
A375 cells were plated in a black, clear-bottom 96 well plate at a density of 1.5×10^4 cells per well. […] Cells were washed and analyzed in PBS using a spectrophotometer at 530 and 590 nm.

SK-Mel-3 melanoma cells [13] = experiment: Intracellular ATP measurement (CellTiter-Glo luciferase assay); type: cell-based, human; details: SK-Mel-3, 5.0 μM and 10 μM, 24 h
Protocol: as §6, §2, §7

[14] = system: normal human fibroblasts (NHFs); experiment: Clonogenic survival assay; type: cell-based; details: NHF, 5.0 μM, 24 h
Protocol: as §8, with “μM. […]” for “μM.”
A375 cells were plated in 60 mm culture dishes at a density of 1.5×10^5 cells per dish. […] After the exposure period, cells were collected, counted, and plated at either 500 (A375 and NHF) or 3000 (SK-Mel-3) cells per 60 mm dish. […]

Row | SMILES | concentration of ATP relative to the untreated control (A375 melanoma cells [7]) | clonogenic survival relative to the untreated control (A375 melanoma cells [8]) | clonogenic survival relative to the untreated control (SK-Mel-3 melanoma cells [9]) | decrease of JC-1 aggregate to monomer fluorescence ratio (A375 melanoma cells [10]) | decrease of JC-1 aggregate to monomer fluorescence ratio (SK-Mel-3 melanoma cells [11]) | decrease of JC-1 aggregate to monomer fluorescence ratio [12] | further results
1 | CCCCCCCCCC[n+]1ccc(C(=C(c2ccccc2)c2ccccc2)c2ccccc2)cc1.[Br-] [Compound 10-TPVP, 1-Decyl-4-(1,2,2-triphenylvinyl)pyridin-1-ium Bromide] | – | – | – | – | – | – | accumulation in cells by confocal microscopy (A375 melanoma cells [1]): easily observable; accumulation in cells by confocal microscopy (SK-Mel-3 melanoma cells [2]): easily observable; accumulation in mitochondria by confocal microscopy [3]: does not significantly accumulate; increase of DHE oxidation (A375 melanoma cells [4]): 3 fold; increase of DHE oxidation (SK-Mel-3 melanoma cells [5]): 2 fold; DHE fluorescence intensity [6]: does not significantly alter
2 | CCCCCCCCCC[n+]1ccc(C(=C(c2cc[n+](CCCCCCCCCC)cc2)c2cc[n+](CCCCCCCCCC)cc2)c2ccccc2)cc1.[Br-].[Br-].[Br-] [PTVP, 4,4′,4″-(2-Phenylethene-1,1,2-triyl)tris(1-decylpyridin-1-ium) Bromide] | significantly decreases | significantly decrease | significantly decrease | – | – | – | –
3 | CCCCCCCCCC[n+]1ccc(C(=C(c2ccccc2)c2ccccc2)c2cc[n+](CCCCCCCCCC)cc2)cc1.[Br-].[Br-] [DPDVP, 4,4′-(2,2-Diphenylethene-1,1-diyl)bis(1-decylpyridin-1-ium) Bromide] | significantly decreases | significantly decrease | significantly decrease | 50% | 30% | 10% | –
4 | CCCCC/C=C\C/C=C\CCCCCCCC[n+]1ccc(C(=C(c2ccccc2)c2ccccc2)c2ccccc2)cc1.[Br-] [18:2-TPVP, 1-((9Z,12Z)-Octadeca-9,12-dien-1-yl)-4-(1,2,2-triphenylvinyl)pyridin-1-ium Bromide] | significantly decreases | significantly decrease | significantly decrease | 55% | 40% | 20% | intracellular ATP relative to NHFs (A375 melanoma cells [7]; A375, all concentrations (1, 5, or 10 μM)): significantly decreases; intracellular ATP relative to NHFs (SK-Mel-3 melanoma cells [13]): significantly decreases; clonogenic survival (A375 melanoma cells [8]; A375, 5.0 μM): < 50% and 40%; clonogenic survival (A375 melanoma cells [8]; A375, 7.5 μM): < 20%; clonogenic survival relative to NHFs (A375 melanoma cells [8]; A375, 2.5, 5.0, 7.5, and 10 μM): significant decrease; clonogenic survival (SK-Mel-3 melanoma cells [9]; SK-Mel-3, 5.0 μM): < 50% and 30%; clonogenic survival (SK-Mel-3 melanoma cells [9]; SK-Mel-3, 7.5 μM): < 20%; clonogenic survival relative to NHFs (SK-Mel-3 melanoma cells [9]; SK-Mel-3, 2.5, 5.0, 7.5, and 10 μM): significant decrease; clonogenic survival [14]: 75%
